Reference: patent publication US20230286929A1, “AROMATIC BRIDGED RING AMIDE DERIVATIVES FOR THE TREATMENT AND PROPHYLAXIS OF HEPATITIS B VIRUS INFECTION” (Hoffmann-La Roche Inc., priority 2020, published 2023)

What was measured:
Type in all cases: cell-based
[1] = Cytotoxicity in PHH natural infection assay (Cell Counting Kit-8); conditions: HBV-infected primary human hepatocytes, CCK8
Procedure: (§1) Detailed procedures regarding primary human hepatocyte (PHH) HBV natural infection assay are described as below. One tube of frozen PHH (10 million cells) is thawed in 37° C. water bath and then transferred to 20 mL of PHH thawing medium (Sigma, InVitroGRO HT Medium, Cat. S03319) with gently mixing. The cells were then centrifuged at […] for 5 min, the supernatant was discarded and the tube was refilled with 25 mL of PHH plating medium (Sigma, InVitroGRO CP Medium, Cat. 503317). The tube was shaken very gently to re-suspend all cells. 50 μl of cells were transferred to each well 384-well collagen I coated plate with appropriate liquid handling equipment, e.g. Integra VIAFLO384 or Agilent Bravo. The cells were then cultured for 24 hours in a cell incubator. For HBV infection, after PHH attachment on the culture plate, the plating medium was removed and replenished with PHH culture medium containing HBV virus. The PHH culture medium was prepared with Dulbecco's Modified Eagle Medium (DMEM)/F12 (1:1 in volume ratio) containing 10% fetal bovine serum (Gibco, Cat. 10099141), […] (Gibco, Cat. PHG03I1L), 20 ng/mL dexamethasone (Sigma, Cat. D4902-100 mg), 250 ng/mL human recombinant insulin (Gibco, Cat. 41400045) and 100 U/mL penicillin. HBV virus at 200 genome equivalent (GE) per cell with 4% PEG8000 (Sigma, Cat. P1458) containing culture medium were added to the PHH culture medium for infection. The cells were then cultured for 24 hours in cell incubator. Then the cell culture supernatant was removed. The HBV-infected PHH were cultured with sandwich culture method with PHH culture medium containing 1% DMSO and 0.25 mg/mL matrix gel for 72 hours. The supernatant was then refreshed with PHH culture medium containing different concentrations of testing compounds for two times with 72-hour interval. At the end of treatment, the supernatant was collected for viral markers measurements, including HBsAg, HBeAg, HBV DNA and cytotoxicity. HBsAg and HBeAg were detected using alphalisa method using their specific antibodies. For HBV DNA detection, HBV DNA Quantitative Fluorescence Diagnostic Kit (Sansure Biotech Inc.) was used following the manufacture's protocol. Cytotoxicity was determined using Cell Counting Kit-8 (CCK8, Dojindo Molecular Technologies, Inc.).

[2] = test system: HBeAg; experiment: PHH HBV natural infection assay, HBeAg (alphalisa); conditions: Hepatitis B virus, Hepatocyte, 72 h, read-out: HbeAg IC50
Procedure: as §1
(§2) The compounds of the present invention were tested for their capacity to inhibit HBsAg and HBeAg as described herein.

[3] = test system: HBsAg; experiment: PHH HBV natural infection assay, HBsAg (alphalisa); conditions: Hepatitis B virus, Hepatocyte, 72 h, read-out: HBsAg IC50
Procedure: as §1, §2

| Compound | CC50 at 144 h [1] | IC50 [2] | IC50 [3] |
| --- | --- | --- | --- |
| CS(=O)(=O)c1ccc(C(=O)NC23CC(c4nc5cc(Cl)ccc5o4)(C2)C3)o1 [Example 1, N-[3-(5-chloro-1,3-benzoxazol-2-yl)-1-bicyclo[1.1.1]pentanyl]-5-methylsulfonyl-furan-2-carboxamide] | > 100 µM | 1.77 µM | 2.17 µM |
| C[S+]([O-])c1ccc(C(=O)NC23CC(c4nc5cc(Cl)ccc5o4)(C2)C3)o1 (stereo not drawn) [Example 2, N-[3-(5-chloro-1,3-benzoxazol-2-yl)-1-bicyclo[1.1.1]pentanyl]-5-methylsulfinyl-furan-2-carboxamide] | > 100 µM | 2.14 µM | 6.45 µM |
| C[S@+]([O-])c1ccc(C(=O)NC23CC(c4nc5cc(Cl)ccc5o4)(C2)C3)o1 [Example 2-a, N-[3-(5-chloro-1,3-benzoxazol-2-yl)-1-bicyclo[1.1.1]pentanyl]-5-[(S)-methylsulfinyl]furan-2-carboxamide] | > 100 µM | 1.19 µM | 2.38 µM |
| C[S@@+]([O-])c1ccc(C(=O)NC23CC(c4nc5cc(Cl)ccc5o4)(C2)C3)o1 [Example 2-b, N-[3-(5-chloro-1,3-benzoxazol-2-yl)-1-bicyclo[1.1.1]pentanyl]-5-[(R)-methylsulfinyl]furan-2-carboxamide] | > 100 µM | 1.89 µM | 3.64 µM |
| CSc1ccc(C(=O)NC23CC(c4nc5cc(Cl)ccc5o4)(C2)C3)o1 [Example 3, N-[3-(5-chloro-1,3-benzoxazol-2-yl)-1-bicyclo[1.1.1]pentanyl]-5-methylsulfanyl-furan-2-carboxamide] | > 100 µM | 3.83 µM | 8.05 µM |
| O=C(NC12CC(c3nc4cc(Cl)ccc4o3)(C1)C2)c1ccc([S+]([O-])C2CC2)o1 (stereo not drawn) [Example 4, N-[3-(5-chloro-1,3-benzoxazol-2-yl)-1-bicyclo[1.1.1]pentanyl]-5-cyclopropylsulfinyl-furan-2-carboxamide] | 80 µM | 1.32 µM | 2.81 µM |
| O=C(NC12CC(c3nc4cc(Cl)ccc4o3)(C1)C2)c1ccc(S(=O)(=O)C2CC2)o1 [Example 5, N-[3-(5-chloro-1,3-benzoxazol-2-yl)-1-bicyclo[1.1.1]pentanyl]-5-cyclopropylsulfonyl-furan-2-carboxamide] | > 100 µM | 0.75 µM | 0.688 µM |
| O=C(NC12CC(c3nc4cc(Cl)ccc4o3)(C1)C2)c1ccc([S+]([O-])CC2CC2)o1 (stereo not drawn) [Example 6, N-[3-(5-chloro-1,3-benzoxazol-2-yl)-1-bicyclo[1.1.1]pentanyl]-5-(cyclopropylmethylsulfinyl)furan-2-carboxamide] | > 100 µM | 1.37 µM | 2.02 µM |
| O=C(NC12CC(c3nc4cc(Cl)ccc4o3)(C1)C2)c1ccc(S(=O)(=O)CC2CC2)o1 [Example 7, N-[3-(5-chloro-1,3-benzoxazol-2-yl)-1-bicyclo[1.1.1]pentanyl]-5-(cyclopropylmethylsulfonyl)furan-2-carboxamide] | 73.1 µM | 1.21 µM | 1.31 µM |
| O=C(NC12CC(c3nc4cc(Cl)ccc4o3)(C1)C2)c1ccc(Br)o1 [Example 8, 5-bromo-N-[3-(5-chloro-1,3-benzoxazol-2-yl)-1-bicyclo[1.1.1]pentanyl]furan-2-carboxamide] | > 100 µM | 14.8 µM | 9.04 µM |
| CS(=O)(=O)c1ccc(C(=O)NC23CC(c4nc5cc(Cl)ccc5o4)(C2)C3)s1 [Example 9, N-[3-(5-chloro-1,3-benzoxazol-2-yl)-1-bicyclo[1.1.1]pentanyl]-5-methylsulfonyl-thiophene-2-carboxamide] | > 100 µM | 5.37 µM | 9.64 µM |
| NS(=O)(=O)c1ccc(C(=O)NC23CC(c4nc5cc(Cl)ccc5o4)(C2)C3)o1 [Example 10, N-[3-(5-chloro-1,3-benzoxazol-2-yl)-1-bicyclo[1.1.1]pentanyl]-5-sulfamoyl-furan-2-carboxamide] | > 100 µM | 2.67 µM | 4.44 µM |
| N=S(=O)(c1ccc(C(=O)NC23CC(c4nc5cc(Cl)ccc5o4)(C2)C3)o1)C1CC1 (stereo not drawn) [Example 11, N-[3-(5-chloro-1,3-benzoxazol-2-yl)-1-bicyclo[1.1.1]pentanyl]-5-(cyclopropylsulfonimidoyl)furan-2-carboxamide] | > 100 µM | 0.594 µM | 0.823 µM |
| CS(=N)(=O)c1ccc(C(=O)NC23CC(c4nc5cc(Cl)ccc5o4)(C2)C3)o1 (stereo not drawn) [Example 12, N-[3-(5-chloro-1,3-benzoxazol-2-yl)-1-bicyclo[1.1.1]pentanyl]-5-(methylsulfonimidoyl)furan-2-carboxamide] | > 100 µM | 0.891 µM | 1.52 µM |
| C[S@@](=N)(=O)c1ccc(C(=O)NC23CC(c4nc5cc(Cl)ccc5o4)(C2)C3)o1 [Example 12-a, N-[3-(5-chloro-1,3-benzoxazol-2-yl)-1-bicyclo[1.1.1]pentanyl]-5-[(R)-methylsulfonimidoyl]furan-2-carboxamide] | > 100 µM | 1.3 µM | 2.23 µM |
| C[S@](=N)(=O)c1ccc(C(=O)NC23CC(c4nc5cc(Cl)ccc5o4)(C2)C3)o1 [Example 12-b, N-[3-(5-chloro-1,3-benzoxazol-2-yl)-1-bicyclo[1.1.1]pentanyl]-5-[(S)-methylsulfonimidoyl]furan-2-carboxamide] | > 100 µM | 1.01 µM | 2.19 µM |
| N=S(=O)(CC1CC1)c1ccc(C(=O)NC23CC(c4nc5cc(Cl)ccc5o4)(C2)C3)o1 (stereo not drawn) [Example 13, N-[3-(5-chloro-1,3-benzoxazol-2-yl)-1-bicyclo[1.1.1]pentanyl]-5-(cyclopropylmethylsulfonimidoyl)furan-2-carboxamide] | > 100 µM | 0.995 µM | 0.95 µM |
| O=C(NC12CC(c3nc4cc(Cl)ccc4o3)(C1)C2)c1ccc(S(=O)(=O)CC2COC2)o1 [Example 14, N-[3-(5-chloro-1,3-benzoxazol-2-yl)-1-bicyclo[1.1.1]pentanyl]-5-(oxetan-3-ylmethylsulfonyl)furan-2-carboxamide] | 95.7 µM | 3.56 µM | 5.18 µM |
| N=S(=O)(CC1COC1)c1ccc(C(=O)NC23CC(c4nc5cc(Cl)ccc5o4)(C2)C3)o1 (stereo not drawn) [Example 15, N-[3-(5-chloro-1,3-benzoxazol-2-yl)-1-bicyclo[1.1.1]pentanyl]-5-(oxetan-3-ylmethylsulfonimidoyl)furan-2-carboxamide] | > 100 µM | 3.31 µM | 4.76 µM |
| CS(=O)(=O)Cc1ccc(C(=O)NC23CC(c4nc5cc(Cl)ccc5o4)(C2)C3)o1 [Example 16, N-[3-(5-chloro-1,3-benzoxazol-2-yl)-1-bicyclo[1.1.1]pentanyl]-5-(methylsulfonylmethyl)furan-2-carboxamide] | > 100 µM | 0.575 µM | 0.66 µM |
| CS(=N)(=O)Cc1ccc(C(=O)NC23CC(c4nc5cc(Cl)ccc5o4)(C2)C3)o1 (stereo not drawn) [Example 17, N-[3-(5-chloro-1,3-benzoxazol-2-yl)-1-bicyclo[1.1.1]pentanyl]-5-[(methylsulfonimidoyl)methyl]furan-2-carboxamide] | > 100 µM | 2.19 µM | 3.25 µM |
| NS(=O)(=O)Cc1ccc(C(=O)NC23CC(c4nc5cc(Cl)ccc5o4)(C2)C3)o1 [Example 18, N-[3-(5-chloro-1,3-benzoxazol-2-yl)-1-bicyclo[1.1.1]pentanyl]-5-(sulfamoylmethyl)furan-2-carboxamide] | > 100 µM | 3.7 µM | 4.96 µM |
| O=C(NC12CC(c3nc4cc(Cl)ccc4o3)(C1)C2)c1cccc(Br)c1 [Example 19, 3-bromo-N-[3-(5-chloro-1,3-benzoxazol-2-yl)-1-bicyclo[1.1.1]pentanyl]benzamide] | > 100 µM | 3.23 µM | 2.61 µM |
| O=C(NC12CC(c3nc4cc(Cl)ccc4o3)(C1)C2)c1ccc(Br)cc1 [Example 20, 4-bromo-N-[3-(5-chloro-1,3-benzoxazol-2-yl)-1-bicyclo[1.1.1]pentanyl]benzamide] | > 100 µM | 7.21 µM | 4.28 µM |
| CSc1cccc(C(=O)NC23CC(c4nc5cc(Cl)ccc5o4)(C2)C3)c1 [Example 21, N-[3-(5-chloro-1,3-benzoxazol-2-yl)-1-bicyclo[1.1.1]pentanyl]-3-methylsulfanyl-benzamide] | > 100 µM | 1.87 µM | 2.6 µM |
